Results from the RepoRT retention time repository (doi:10.1016/j.chroma.2019.01.023).

Tests used:
Conditions in all cases: stereoisomer not certain
[1] = HILIC, Merck SeQuant ZIC-pHILIC, 150 × 2.1 mm, 5 µm, 40 °C, 0.3 mL/min, estimated dead time 1.1 min; A: acetonitrile; B: water + 2.8 mM ammonium formate, pH 9; gradient (min/%B) 0/5 1/5 10/51 13/51 13.1/5 20/5
[2] = RP, Phenomenex Kinetex C18, 150 × 2.1 mm, 1.7 µm, 30 °C, 0.3 mL/min, estimated dead time 1.1 min; A: water + 0.1% formic acid, pH 3; B: acetonitrile + 0.1% formic acid, pH 3; gradient (min/%B) 0/2 14/100 17/100 17.1/2 25/2
[3] = as above; remark: listed apart in the source
[4] = HILIC, Waters ACQUITY UPLC BEH Amide, 150 × 2.1 mm, 1.7 µm, 40 °C, 0.5 mL/min, estimated dead time 0.66 min; A: 5% water + 95% acetonitrile; B: 70% water + 30% acetonitrile + 10 mM ammonium formate, pH 6.5; gradient (min/%B) 0/0 2/0 20/70 23/70 24/0 31/0

## Cc1c[nH]c(=O)[nH]c1=O [THYMINE]
[1]
  LC retention time: 2.68 min
[2]
  LC retention time: 2.42 min
[3]
  LC retention time: 2.54 min
[4]
  LC retention time: 1.6 min

## Cn1cnc2c(ncn2C2OC(CO)C(O)C2O)c1=N (centres undefined) [1-METHYLADENOSINE]
[1]
  LC retention time: 4.07 min
[2]
  LC retention time: 3.16 min
[3]
  LC retention time: 3.36 min
[4]
  LC retention time: 2.82 min

## N[C@@H](Cc1cc(I)c(Oc2ccc(O)cc2)c(I)c1)C(=O)O [3,5-DIIODO-L-THYRONINE]
[1]
  LC retention time: 6.36 min
[2]
  LC retention time: 6.44 min
[3]
  LC retention time: 6.51 min
[4]
  LC retention time: 6.98 min

## CC(=O)OCC(=O)C1(O)CCC2C3CCC4=CC(=O)CCC4(C)C3C(O)CC21C (centres undefined) [CORTISOL 21-ACETATE]
[2]
  LC retention time: 8.62 min
[3]
  LC retention time: 8.68 min
[4]
  LC retention time: 0.83 min

## CC(CCC(=O)O)C1CCC2C3C(O)CC4CC(O)CCC4(C)C3CC(O)C12C (centres undefined) [CHOLATE]
[1]
  LC retention time: 2.33 min
[2]
  LC retention time: 9.02 min
[3]
  LC retention time: 9.11 min
[4]
  LC retention time: 2.62 min

## COc1cc(C=CC(=O)O)ccc1O [FERULATE]
[1]
  LC retention time: 3.78 min
[2]
  LC retention time: 5.76 min
[3]
  LC retention time: 5.87 min
[4]
  LC retention time: 1.24 min

## Cc1cn(C2CC(O)C(CO)O2)c(=O)[nH]c1=O (centres undefined) [THYMIDINE]
[1]
  LC retention time: 3.56 min
[2]
  LC retention time: 3.21 min
[3]
  LC retention time: 3.34 min
[4]
  LC retention time: 1.97 min

## CC(=O)NC(Cc1ccccc1)C(=O)O (centres undefined) [N-ACETYLPHENYLALANINE]
[1]
  LC retention time: 4.08 min
[2]
  LC retention time: 5.54 min
[3]
  LC retention time: 5.64 min
[4]
  LC retention time: 2.48 min

## O=c1ccn(C2CC(O)C(CO)O2)c(=O)[nH]1 (centres undefined) [DEOXYURIDINE]
[1]
  LC retention time: 4.73 min
[2]
  LC retention time: 2.39 min
[3]
  LC retention time: 2.63 min
[4]
  LC retention time: 2.37 min

## Nc1nc2c(ncn2C2CC(O)C(CO)O2)c(=O)[nH]1 (centres undefined) [DEOXYGUANOSINE]
[1]
  LC retention time: 7.04 min
[2]
  LC retention time: 2.84 min
[3]
  LC retention time: 2.97 min
[4]
  LC retention time: 6.48 min

## Nc1nc2nc[nH]c2c(=O)[nH]1 [GUANINE]
[1]
  LC retention time: 7.4 min
[2]
  LC retention time: 1.64 min
[3]
  LC retention time: 1.44 min
[4]
  LC retention time: 6.4 min

## CSCCC(NC(C)=O)C(=O)O (centres undefined) [N-ACETYLMETHIONINE]
[1]
  LC retention time: 4.9 min
[2]
  LC retention time: 4.1 min
[3]
  LC retention time: 4.22 min
[4]
  LC retention time: 3.31 min

## CC(=O)NC(CC(C)C)C(=O)O (centres undefined) [N-ACETYLLEUCINE]
[1]
  LC retention time: 3.02 min
[2]
  LC retention time: 5.08 min
[3]
  LC retention time: 5.25 min
[4]
  LC retention time: 4.22 min

## Cn1c(=O)[nH]c2ncn(C)c2c1=O [PARAXANTHINE]
[1]
  LC retention time: 2.16 min
[2]
  LC retention time: 2.27 min
[3]
  LC retention time: 4.04 min
[4]
  LC retention time: 1.36 min

## COc1ccc2[nH]cc(CCNC(C)=O)c2c1 [MELATONIN]
[1]
  LC retention time: 1.36 min
[2]
  LC retention time: 6.29 min
[3]
  LC retention time: 6.37 min
[4]
  LC retention time: 0.88 min

## O=C(O)c1cc(=O)c2ccccc2[nH]1 [KYNURENATE]
[1]
  LC retention time: 5.56 min
[2]
  LC retention time: 4.19 min
[3]
  LC retention time: 4.34 min
[4]
  LC retention time: 2.69 min

## CC(=O)NCCc1c[nH]c2ccc(O)cc12 [N-ACETYLSEROTONIN]
[1]
  LC retention time: 2.26 min
[2]
  LC retention time: 4.58 min
[3]
  LC retention time: 4.83 min
[4]
  LC retention time: 1.02 min

## Cn1c(=O)c2[nH]cnc2n(C)c1=O [THEOPHYLLINE]
[1]
  LC retention time: 1.98 min
[2]
  LC retention time: 3.88 min
[3]
  LC retention time: 4.07 min
[4]
  LC retention time: 1.36 min

## CC1NC(=O)NC1CCCCCC(=O)O (centres undefined) [DETHIOBIOTIN]
[1]
  LC retention time: 3.18 min
[2]
  LC retention time: 5.18 min
[3]
  LC retention time: 5.37 min
[4]
  LC retention time: 2.6 min

## NC(Cc1ccccc1)C(=O)O (centres undefined) [PHENYLALANINE]
[1]
  LC retention time: 7.04 min
[2]
  LC retention time: 3.13 min
[3]
  LC retention time: 3.18 min
[4]
  LC retention time: 7.87 min

## CC(=O)NC(Cc1c[nH]c2ccccc12)C(=O)O (centres undefined) [N-ACETYLTRYPTOPHAN]
[1]
  LC retention time: 5.66 min
[2]
  LC retention time: 5.82 min
[3]
  LC retention time: 5.91 min
[4]
  LC retention time: 2.78 min

## CC1OC(n2cnc3c(N)ncnc32)C(O)C1O (centres undefined) [5'-DEOXYADENOSINE]
[1]
  LC retention time: 4.24 min
[2]
  LC retention time: 3.11 min
[3]
  LC retention time: 3.24 min
[4]
  LC retention time: 2.4 min

## CC(=O)c1ccc(O)cc1O [2',4'-DIHYDROXYACETOPHENONE]
[2]
  LC retention time: 6.35 min
[3]
  LC retention time: 6.45 min
[4]
  LC retention time: 0.96 min

## Nc1nc2c(ncn2C2OC(CO)C(O)C2O)c(=O)[nH]1 (centres undefined) [GUANOSINE]
[1]
  LC retention time: 7.76 min
[2]
  LC retention time: 2.67 min
[3]
  LC retention time: 2.8 min
[4]
  LC retention time: 7.3 min
